The nature of data set [1]: Solubility in PBS (pH 7.4) and simulated colonic fluid, saturated solutions by HPLC-UV. It counts as physicochemical. Conditions: thermodynamic from solid, saturated solution, ambient temperature. The protocol:
The solubility and stability at room temperature of Example compound 1 and the free acid compound 5-chloro-4-hydroxy-1-methyl-2-oxo-N-phenyl-quinoline-3-carboxamide (described in Example 1a) above) was determined in PBS (pH 7.4) and in simulated colonic fluid (SCF) at ambient temperature. The SCF was the product FaSSCof obtained from Biorelevant.com prepared according to the manufacturer’s instructions. FaSSCof contains 0.15 mM sodium cholate, 0.3 mM Phospholipids, 0.1 mM Oleate, 120 mM sodium hydroxide, 45 mM TRIS and 76 mM maleate.
Saturated solutions were prepared in these solvents and the concentrations/impurity profile was determined by HPLC-UV using a calibration curve in the range of 1 to 150 µg/ml at 300 nm or 320 nm. Visual evaluation was also performed after every step over the testing period.

For data set [2], the target named is T1, aryl hydrocarbon receptor (AhR) (Mus musculus, UniProt P30561).
T1 construct: evaluated in a wild-type (WT) mice; from tissue; host or cells: colon and liver of wild-type mice, in vivo after oral dosing
T1 sequence (P30561 10-848): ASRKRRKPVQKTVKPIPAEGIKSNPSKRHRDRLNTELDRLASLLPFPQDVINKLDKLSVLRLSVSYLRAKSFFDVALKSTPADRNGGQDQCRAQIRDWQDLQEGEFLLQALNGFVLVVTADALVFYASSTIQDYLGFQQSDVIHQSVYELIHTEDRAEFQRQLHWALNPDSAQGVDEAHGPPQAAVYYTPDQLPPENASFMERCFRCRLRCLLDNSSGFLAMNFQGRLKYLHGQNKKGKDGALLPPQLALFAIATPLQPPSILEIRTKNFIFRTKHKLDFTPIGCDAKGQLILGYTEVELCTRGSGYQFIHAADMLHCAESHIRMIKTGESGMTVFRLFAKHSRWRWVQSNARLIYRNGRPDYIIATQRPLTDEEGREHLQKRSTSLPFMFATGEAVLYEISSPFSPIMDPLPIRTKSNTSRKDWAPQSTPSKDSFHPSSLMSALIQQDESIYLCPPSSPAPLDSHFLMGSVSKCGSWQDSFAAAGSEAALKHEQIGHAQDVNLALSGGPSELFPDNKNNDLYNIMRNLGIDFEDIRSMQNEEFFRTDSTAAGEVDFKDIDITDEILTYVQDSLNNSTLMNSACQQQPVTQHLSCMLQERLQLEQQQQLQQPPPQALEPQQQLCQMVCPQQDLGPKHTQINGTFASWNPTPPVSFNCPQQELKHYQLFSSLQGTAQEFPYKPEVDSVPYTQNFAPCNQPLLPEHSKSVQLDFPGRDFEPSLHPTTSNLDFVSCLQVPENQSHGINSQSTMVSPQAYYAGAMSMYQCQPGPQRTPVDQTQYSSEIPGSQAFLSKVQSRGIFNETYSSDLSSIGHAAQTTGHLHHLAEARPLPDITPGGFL
Kind of data set: Activation of AhR in mice after oral administration, qPCR of CYP1A1. It counts as in vivo. Conditions: for Colon CYP1A1 (fold change over untreated), Mean / Liver CYP1A1 (fold change over untreated), Mean: day 14, C57Bl/6 mice. The protocol:
The potential of the 5-chloro-4-hydroxy-1-methyl-2-oxo-N-phenyl-quinoline-3-carboxamide potassium salt (Example compound 1) to activate the aryl hydrocarbon receptor (AhR) in the colon following oral administration was evaluated in a wild-type (WT) mice.
On study day 0, animals were weighed and evenly distributed into treatment groups based on body weight.
On study day 14, animals were asphyxiated via CO2 inhalation followed by cervical dislocation. The entire colon was removed, collected and prepared for qPCR analysis of CYP1A1 (Normalized to GAPDH & ACTB).
The Example compound 1 was formulated as a 0.1 mg/ml, 0.01 mg/ml or 0.001 mg/ml suspension with sodium carboxymethyl cellulose (1%, w/v).
In general terms: Real-time PCR tracks product formation cycle by cycle.

Data set [3] in a line: In vivo pharmacokinetic study in rats after oral dosing. On the set-up: species or system Sprague Dawley rats. The conditions noted are these: 1 mg/kg oral; for Level in plasma after oral dosing: 15 min to 24 h post dose. As to the method: An in vivo pharmacokinetic study in rats was performed to determine if 5-chloro-4-hydroxy-1-methyl-2-oxo-N-phenyl-quinoline-3-carboxamide potassium salt (example compound 1) can be absorbed and detected systemically after oral dosing.
4 male Sprague Dawley rats, approximately 225 g - 250 g at dosing were dosed with 1 mg/kg of Example compound 2 formulated as a 0.1 mg/mL suspension with sodium carboxymethyl cellulose (1%, w/v). Blood samples were taken at 15 min, 30 min, 1 h, 2 h, 4 h, 6 h, 8 hand 24 h post dose
At each blood sampling approximately 250 µL blood was sampled in K3EDTA vials and approximately 100 µL plasma was also prepared.
The plasma samples were prepared by mixing 50 µL plasma with 250 µL of internal standard solution (20 ng/ml of phenacetin in ACN with 1% formic acid), mixed and centrifuged (20 min, 4000 rpm).
Plasma samples were transferred to Waters Ostro 96-well plate and drawn through the plate by applying 6-8 psi positive pressure for 10 min. 100 µL of supernatant was further diluted with 50 µL UP water and sample was submitted to analysis.
The standard and QC samples were prepared into blank rat colon homogenate and blank rat plasma. Standards were spiked into concentrations 0.1 - 10000 ng/ml of the analytes, QC samples into 3, 30, 300 and 3000 ng/ml, and were otherwise treated as samples.

Data set [4] in a line: Hygroscopicity by Dynamic Vapour Sorption (DVS). It counts as physicochemical. Conditions: 25° C.; for Hygroscopicity: DVS, 0 to 90% RH, potassium salt. As to the method: Dynamic Vapour Sorption (DVS) analysis was carried out on a sample of Example compound 1.
Approximately 20 mg of sample was placed into a wire-mesh vapour sorption balance pan and loaded into an ‘IgaSorp’ vapour sorption balance (Hiden Analytical Instruments). The sample was then dried by maintaining a 0% humidity environment until no further weight change was recorded.
The sample was then subjected to a step profile from 0 to 90% RH at 10% RH increments. The desorption isotherm was from 90% RH o 0% RH in 10% RH steps. The weight change during the sorption/desorption cycles were then monitored, allowing for the hygroscopic nature of the sample to be determined. Analysis was performed using the following parameters: • Analysis Mode F1 • Wait Time 99% • Sample Temperature 25° C. • Min Time Out 30 Mins • MaxTime Out 180 Mins • Gas Flow Rate 250 ml/min

Results on 1 molecule are retold here after patent US20230202982A1, “5-CHLORO-4-HYDROXY-1-METHYL-2-OXO-N-PHENYL-QUINOLINE-3-CARBOXAMIDE POTASSIUM SALT FOR TREATING INFLAMMATORY BOWEL DISEASES” (Aqilion AB, priority 2020, published 2023).

Read-outs that look alike come from different tables or passages of the source.

The solubility is how much of the substance goes into solution per volume.

With `Cn1c(=O)c(C(=O)Nc2ccccc2)c([O-])c2c(Cl)cccc21.[K+]` [Example compound 1, 5-chloro-4-hydroxy-1-methyl-2-oxo-N-phenyl-quinoline-3-carboxamide potassium salt], the solubility in data set [1] (aqueous buffer, PBS (pH 7.4), read-out: Solubility in PBS (pH7.4)) was 0.91 µg/mL; in data set [1] (simulated colonic fluid (FaSSCof), fassgf or other biorelevant, SCF (FaSSCof), read-out: Solubility in simulated colonic fluid (SCF)) it was 7.99 µg/mL. In addition, the “Colon CYP1A1 (fold change over untreated), Mean” value in data set [2] (0.01 mg/kg PO QD D0-13, colon) is given as 1.03 fold change over untreated; in data set [2] (0.1 mg/kg PO QD D0-13, colon), 7.42 fold change over untreated; in data set [2] (1.0 mg/kg PO QD D0-13, colon) it was 8.34 fold change over untreated. The “Liver CYP1A1 (fold change over untreated), Mean” value in data set [2] (0.01 mg/kg PO QD D0-13, liver) is given as 1.08 fold change over untreated; in data set [2] (0.1 mg/kg PO QD D0-13, liver), 2.81 fold change over untreated; in data set [2] (1.0 mg/kg PO QD D0-13, liver) it was 3.44 fold change over untreated. Besides, in data set [2] (1.0 and 0.1 mg/kg oral, WT mice), the “CYP1A1 mRNA expression compared to untreated animals” value is listed as “significant increase”. Also, the “Level in plasma after oral dosing” value in data set [3] (FIG. 7, listed as 5-chloro-4-hydroxy-1-methyl-2-oxo-N-phenyl-quinoline-3-carboxamide potassium sal, potassium salt) is recorded as “absorbed through the intestine into the plasma”; in data set [3] (FIG. 7, potassium salt), “detected in the plasma”. The Clearance from plasma entry in data set [3] (FIG. 7) is “rapidly cleared”. For the same molecule, the Hygroscopicity result in data set [4] (listed as 5-chloro-4-hydroxy-1-methyl-2-oxo-N-phenylquinoline-3-carboxamide potassium salt) is on record as “not hygroscopic”; in data set [4], “non-hygroscopic”. Besides, the “Reversible weight gain (DVS)” value in data set [4] (analysed to 80% RH) is reported as “less than 0.2%”.
